Like-named read-outs stand apart in the source and are kept apart here.
Tests used:
HCV 1a replicon = assay: HCV GT1a replicon assay in Huh-7 cells; assay type: cell-based, Hepatitis C virus; conditions: Huh-7 cells transfected with HCV replicon, 72 hours incubation, read-out: EC50 against HCV 1a genotype
Procedure: (§1) HCV Replicon System was utilized as an evaluation model in the present disclosure for verifying the effects of the compounds disclosed herein on HCV. An HCV Replicon assay was first described in Science, 1999, 285 (5424), 110-3. […] To determine the potential anti-HCV effects of the test compounds, luciferase assay and antibiotic Neomycin resistance gene were tested according to the method described in Science. 1999 Jul. 2; 285 (5424), 110-3 and J. Virol. 2003 March; 77 (5), 3007-19.
(§2) In a word, the compounds disclosed herein were tested by using human hepatic carcinoma cell line which is transfected stably HCV GT1a, GT1b or GT2a replicon respectively, and resistant cells Y93H, L31F, P32L or I302V and wild-type cells HCV 1b. HCV Replicon System disclosed herein containing Neomycin resistance gene and Luciferase Reporter Gene, the level of HCV replication in host cells is characterized by the expression level of the NEO gene expression level or Luciferase Reporter Gene, and the effects of the compounds herein inhibit HCV replication can be evaluated. In this article, a real-time quantitative polymerase chain reaction (qPCR) method was used to detect NEO gene expression level, and chemiluminescence method was used to test Luciferase Reporter Gene expression level.
(§3) 1. Test Method for Measuring EC50 of the Compounds Base on Luciferase Assay.
(§4) The Huh-7 cells transfected with HCV replicons system were seeded into 96-well plates (8,000 cells in 125 μL/well) respectively; each test compound was diluted to desired concentration using 5-fold serial dilutions protocol, 10 doses in duplicate, and added to wells with POD™ 810 Plate Assembler. […] In this paper, experiments were repeated twice and set the holes without compounds as negative control.
(§5) 2. Test Method for Measuring EC50 of the Compounds by Detecting Antibiotic G418 Resistance Gene NEO Gene.
(§6) In this paper, experiments were repeated twice and set the holes without compounds as negative control.

HCV 1b replicon = assay: HCV GT1b replicon assay in Huh-7 cells; assay type: cell-based, Hepatitis C virus; conditions: Huh-7 cells transfected with HCV replicon, 72 hours incubation, read-out: EC50 against HCV 1b genotype
Procedure: as §1, §2, §3, §4, §5, §6

Compound | EC50 (HCV 1a replicon; Hepatitis C virus) [nM] | EC50 (HCV 1b replicon; Hepatitis C virus) [nM] | EC50 (HCV 1a replicon) [nM] | EC50 (HCV 1b replicon) [nM]
COC(=O)N[C@H](C(=O)N1CCC[C@H]1c1ncc(-c2ccc(-c3ccc(-c4ccc5nc([C@@H]6CCCN6C(=O)[C@@H](NC(=O)OC)C(C)C)[nH]c(=O)c5c4)c4c3CC3(CCCC3)C4)cc2)[nH]1)C(C)C [Example 1] | 0.76 | 0.042 |  | 
COC(=O)N[C@H](C(=O)N1CCC[C@H]1c1cc(=O)c2cc(-c3ccc(-c4ccc(-c5cnc([C@@H]6CCCN6C(=O)[C@@H](NC(=O)OC)C(C)C)[nH]5)cc4)c4c3CC3(CCCC3)C4)ccc2[nH]1)C(C)C [Example 2] | 1.28 | 0.087 |  | 
COC(=O)N[C@H](C(=O)N1CCC[C@H]1C1=Nc2cc(-c3ccc(-c4ccc(-c5cnc([C@@H]6CCCN6C(=O)[C@@H](NC(=O)OC)C(C)C)[nH]5)cc4)c4c3CC3(CCCC3)C4)ccc2C(C)(C)N1)C(C)C [Example 3] | 0.537 | 0.04 |  | 
COC(=O)N[C@H](C(=O)N1CCC[C@H]1C1=Nc2cc(-c3ccc(-c4ccc(-c5cnc([C@@H]6CCCN6C(=O)[C@@H](NC(=O)OC)C(C)C)[nH]5)cc4)c4c3CC3(CCCC3)C4)ccc2C2(COC2)N1)C(C)C [Example 4] | 0.089 | 0.016 |  | 
COC(=O)N[C@H](C(=O)N1CCC[C@H]1C1=Nc2cc(-c3ccc(-c4ccc(-c5cnc([C@@H]6CCCN6C(=O)[C@@H](NC(=O)OC)C(C)C)[nH]5)cc4)c4c3CC3(CCCC3)C4)ccc2S(=O)(=O)N1)C(C)C [Example 5] | 0.078 | 0.023 |  | 
COC(=O)N[C@H](C(=O)N1CCC[C@H]1c1nc2ccc(-c3ccc(-c4ccc5nc([C@@H]6CCCN6C(=O)[C@@H](NC(=O)OC)C(C)C)[nH]c(=O)c5c4)c4c3CC3(CCCC3)C4)cc2c(=O)[nH]1)C(C)C [Example 6] | 0.109 | 0.077 |  | 
COC(=O)N[C@H](C(=O)N1CCC[C@H]1c1ncc(C#Cc2ccc(-c3ccc4nc([C@@H]5CCCN5C(=O)[C@@H](NC(=O)OC)C(C)C)[nH]c(=O)c4c3)c3c2CC2(CCCC2)C3)[nH]1)C(C)C [Example 7] | 0.21 | 0.103 |  | 
CCC(C)[C@H](NC(=O)OC)C(=O)N1CCC[C@H]1c1nc(=O)c2cc(-c3ccc(-c4ccc(-c5cnc([C@@H]6CCCN6C(=O)[C@@H](NC(=O)OC)C(C)C)[nH]5)cc4)c4c3CC3(CCCCC3)C4)ccc2[nH]1 (stereo partly shown) [Example 8] | 0.982 | 0.065 |  | 
COC(=O)N[C@H](C(=O)N1C[C@@H](F)C[C@H]1c1nc(-c2ccc(-c3ccc(-c4ccc5nc([C@@H]6C[C@H](F)CN6C(=O)[C@@H](NC(=O)OC)C(C)C)[nH]c(=O)c5c4)c4c3CC3(CCCCC3)C4)cc2)c[nH]1)C(C)C [Example 9] | 0.439 | 0.072 |  | 
COC(=O)N[C@H](C(=O)N1CCC[C@H]1c1ncc(-c2ccc(-c3ccc(-c4ccc5nc([C@@H]6CC7CC7N6C(=O)[C@@H](NC(=O)OC)C(C)C)[nH]c(=O)c5c4)c4c3CC3(CCN(C)CC3)C4)cc2)[nH]1)C(C)C (stereo partly shown) [Example 10] | 1.27 | 0.438 |  | 
COC(=O)N[C@H](C(=O)N1CCC[C@H]1c1ncc(-c2ccc(-c3ccc(-c4ccc5nc([C@@H]6CC7CC7N6C(=O)[C@@H](NC(=O)OC)C(C)C)[nH]c(=O)c5c4)c4c3OC3(CCCC3)O4)cc2)[nH]1)C(C)C (stereo partly shown) [Example 11] | 0.068 | 0.032 |  | 
COC(=O)N[C@H](C(=O)N1CC(F)(F)CC1c1nc(-c2ccc(-c3ccc(-c4ccc5nc([C@@H]6CC(F)(F)CN6C(=O)[C@@H](NC(=O)OC)C(C)C)[nH]c(=O)c5c4)c4c3CC3(CCOCC3)C4)cc2)c[nH]1)C(C)C (stereo partly shown) [Example 12] | 0.38 | 0.049 |  | 
COC(=O)N[C@H](C(=O)N1CCC[C@H]1c1ncc(-c2ccc(-c3ccc(-c4ccc5nc([C@@H]6CCCN6C(=O)[C@@H](NC(=O)OC)c6ccccc6)[nH]c(=O)c5c4)c4c3CC3(CCCC3)C4)cc2)[nH]1)c1ccccc1 [Example 13] | 2.07 | 0.273 |  | 
COC(=O)N[C@@H](C)C(=O)N1CCC[C@H]1c1ncc(-c2ccc(-c3ccc(-c4ccc5nc([C@@H]6CCCN6C(=O)[C@H](C)NC(=O)OC)[nH]c(=O)c5c4)c4c3CC3(CCCC3)C4)cc2)[nH]1 [Example 14] | 0.884 | 0.013 |  | 
COC(=O)N[C@H](C(=O)N1CCC[C@H]1c1ncc(-c2ccc(-c3ccc(-c4ccc5nc([C@@H]6CCCN6C(=O)[C@@H](NC(=O)OC)C6CCCCC6)[nH]c(=O)c5c4)c4c3CC3(CCCC3)C4)cc2)[nH]1)C1CCCCC1 [Example 15] | 0.206 | 0.142 |  | 
COC(=O)N[C@H](C(=O)C1CCCC[C@H]1c1nc2ccc(-c3ccc(-c4ccc(-c5cnc(C6CCCCN6C(=O)[C@@H](NC(=O)OC)C(C)C)[nH]5)cc4)c4c3CC3(CCCC3)C4)cc2c(=O)[nH]1)C(C)C (stereo partly shown) [Example 16] | 0.089 | 0.036 |  | 
COC(=O)N[C@H](C(=O)N1C[C@@H](C)C[C@H]1n1cnc(-c2ccc(-c3ccc(-c4ccc5nc([C@@H]6C[C@H](C)CN6C(=O)[C@@H](NC(=O)OC)C(C)C)[nH]c(=O)c5c4)c4c3CC3(CCCC3)C4)cc2)c1)C(C)C [Example 17] |  |  | 0.023 | 0.006
COC(=O)N[C@H](C(=O)N1CC(C)(C)C[C@H]1c1ncc(-c2ccc(-c3ccc(-c4ccc5nc([C@@H]6CC(C)(C)CN6C(=O)[C@@H](NC(=O)OC)C(C)C)[nH]c(=O)c5c4)c4c3CC3(CCCC3)C4)cc2)[nH]1)C(C)C [Example 18] | 0.326 | 0.065 |  | 
CC(C)[C@H](NC(=O)Oc1ccccc1)C(=O)N1CC(C)(C)C[C@H]1c1ncc(-c2ccc(-c3ccc(-c4ccc5nc([C@@H]6CC(C)(C)CN6C(=O)[C@@H](NC(=O)Oc6ccccc6)C(C)C)[nH]c(=O)c5c4)c4c3CC3(CCCC3)C4)cc2)[nH]1 [Example 19] | 4.77 | 0.436 |  | 
COC(=O)N[C@H](C(=O)N1CCC[C@H]1C(=O)Nc1ccc(-c2ccc(-c3ccc4nc([C@@H]5CCCN5C(=O)[C@@H](NC(=O)OC)C(C)C)[nH]c(=O)c4c3)c3c2CC2(CCCC2)C3)cc1)C(C)C [Example 20] | 3.67 | 0.685 |  | 
COC(=O)N[C@H](C(=O)N1CC2(CC2)C[C@H]1c1ncc(-c2ccc(-c3ccc(-c4ccc5nc([C@@H]6CC7(CC7)CN6C(=O)[C@@H](NC(=O)OC)C(C)C)[nH]c(=O)c5c4)c4c3CC3(CCCC3)C4)cc2)[nH]1)C(C)C [Example 21] | 0.08 | 0.029 |  | 
COC(=O)N[C@H](C(=O)N1C2CC2C[C@H]1c1ncc(-c2ccc(-c3ccc(-c4ccc5nc([C@@H]6CC7CC7N6C(=O)[C@@H](NC(=O)OC)C(C)C)[nH]c(=O)c5c4)c4c3CC3(CCCC3)C4)cc2)[nH]1)C(C)C (stereo partly shown) [Example 22] | 0.561 | 0.072 |  | 
COC(=O)N[C@H](C(=O)N1[C@@H]2CC[C@@H](C2)[C@H]1c1ncc(-c2ccc(-c3ccc(-c4ccc5nc([C@@H]6[C@H]7CC[C@H](C7)N6C(=O)[C@@H](NC(=O)OC)C(C)C)[nH]c(=O)c5c4)c4c3CC3(CCCC3)C4)cc2)[nH]1)C(C)C [Example 23] | 0.31 | 0.047 |  | 
COC(=O)N[C@H](C(=O)N1CC2(C[C@H]1c1ncc(-c3ccc(-c4ccc(-c5ccc6nc([C@@H]7CCCN7C(=O)[C@@H](NC(=O)OC)C(C)C)[nH]c(=O)c6c5)c5c4CC4(CCCC4)C5)cc3)[nH]1)OCCO2)C(C)C [Example 24] | 0.475 | 0.099 |  | 
COC(=O)N[C@H](C(=O)N1CCC[C@H]1c1ncc(-c2ccc(-c3ccc(-c4ccc5nc([C@@H]6CC7CC7N6C(=O)[C@@H](NC(=O)OC)C(C)C)[nH]c(=O)c5c4)c4c3CC3(CCCC3)C4)c3c2CCC3)[nH]1)C(C)C (stereo partly shown) [Example 25] | 0.829 | 0.103 |  | 
COC(=O)N[C@H](C(=O)N1CCC[C@H]1c1ncc(-c2ccc(-c3ccc(-c4ccc5nc([C@@H]6CC7CC7N6C(=O)[C@@H](NC(=O)OC)C(C)C)[nH]c(=O)c5c4)c4c3CC3(CCCC3)C4)c3ccccc23)[nH]1)C(C)C (stereo partly shown) [Example 26] | 0.727 | 0.216 |  | 
COC(=O)N[C@H](C(=O)N1CCC[C@H]1c1ncc(-c2ccc(-c3ccc(-c4ccc5nc([C@@H]6CC7CC7N6C(=O)[C@@H](NC(=O)OC)C(C)C)[nH]c(=O)c5c4)c4c3CC3(CCCC3)C4)c3cnoc23)[nH]1)C(C)C (stereo partly shown) [Example 27] | 1.53 | 0.323 |  | 
COC(=O)N[C@H](C(=O)N1CCC[C@H]1c1ncc(-c2ccc(-c3sc(-c4ccc5nc([C@@H]6CCCN6C(=O)[C@@H](NC(=O)OC)C(C)C)[nH]c(=O)c5c4)c4c3CC3(CCCC3)C4)cc2)[nH]1)C(C)C [Example 28] | 1.1 | 0.763 |  | 
COC(=O)N[C@H](C(=O)N1CCC[C@H]1C1=Nc2cc(-c3cnc(-c4ccc(-c5cnc([C@@H]6CCCN6C(=O)[C@@H](NC(=O)OC)C(C)C)[nH]5)cc4)c4c3CC3(CCCC3)C4)ccc2S(=O)(=O)N1)C(C)C [Example 29] | 0.061 | 0.009 |  | 
